Like-named read-outs stand apart in the source and are kept apart here.
Tests used:
Assay in all cases: biochemical
Design in all cases: KINOMEscan active site-directed competition binding assay (DiscoveRx), 456 kinases, per cent of control at 300 nM
Conditions in all cases: read-out: Percent of Control (%)
[1] = target: T1, ABL1(T315I)-phosphorylated (Homo sapiens, UniProt P00519, T315I)
T1 construct: phosphorylated
Method in brief: (§1)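 At 300 nmol/L, compounds were assessed for kinase binding in an active site-directed competition format covering 456 kinases.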

ASK1 = target: T2, ASK1 (Homo sapiens, UniProt Q99683)
T2 construct: gene MAP3K5
Method in brief: as §1

BUB1 = BUB1 (Homo sapiens, UniProt O43683)
Method in brief: as §1

CDK4-cyclinD1 = target: T3, CDK4-cyclinD1 (Homo sapiens, UniProt P11802)
T3 construct: cyclinD1
Method in brief: as §1

CSK = CSK (Homo sapiens, UniProt P41240)
Method in brief: as §1

EGFR(L858R) = EGFR(L858R) (Homo sapiens, UniProt P00533, L858R)
Method in brief: as §1

EGFR(L861Q) = EGFR(L861Q) (Homo sapiens, UniProt P00533, L861Q)
Method in brief: as §1

EPHA5 = EPHA5 (Homo sapiens, UniProt P54756)
Method in brief: as §1

EPHB2 = EPHB2 (Homo sapiens, UniProt P29323)
Method in brief: as §1

IKK-beta = target: T4, IKK-beta (Homo sapiens, UniProt O14920)
T4 construct: gene IKBKB
Method in brief: as §1

IRAK3 = IRAK3 (Homo sapiens, UniProt Q9Y616)
Method in brief: as §1

MET(Y1235D) = MET(Y1235D) (Homo sapiens, UniProt P08581, Y1235D)
Method in brief: as §1

PDGFRB = PDGFRB (Homo sapiens, UniProt P09619)
Method in brief: as §1

PIP5K2B = target: T5, PIP5K2B (Homo sapiens, UniProt P78356)
T5 construct: gene PIP4K2B
Method in brief: as §1

PKN1 = PKN1 (Homo sapiens, UniProt Q16512)
Method in brief: as §1

PRKCH = PRKCH (Homo sapiens, UniProt P24723)
Method in brief: as §1

PRKD3 = PRKD3 (Homo sapiens, UniProt O94806)
Method in brief: as §1

PRKX = PRKX (Homo sapiens, UniProt P51817)
Method in brief: as §1

SRPK1 = SRPK1 (Homo sapiens, UniProt Q96SB4)
Method in brief: as §1

TNK1 = TNK1 (Homo sapiens, UniProt Q13470)
Method in brief: as §1

WEE1 = WEE1 (Homo sapiens, UniProt P30291)
Method in brief: as §1

ZAK = target: T6, ZAK (Homo sapiens, UniProt Q9NYL2)
T6 construct: gene MAP3K20
Method in brief: as §1

IRAK3, sequence (Q9Y616 whole entry): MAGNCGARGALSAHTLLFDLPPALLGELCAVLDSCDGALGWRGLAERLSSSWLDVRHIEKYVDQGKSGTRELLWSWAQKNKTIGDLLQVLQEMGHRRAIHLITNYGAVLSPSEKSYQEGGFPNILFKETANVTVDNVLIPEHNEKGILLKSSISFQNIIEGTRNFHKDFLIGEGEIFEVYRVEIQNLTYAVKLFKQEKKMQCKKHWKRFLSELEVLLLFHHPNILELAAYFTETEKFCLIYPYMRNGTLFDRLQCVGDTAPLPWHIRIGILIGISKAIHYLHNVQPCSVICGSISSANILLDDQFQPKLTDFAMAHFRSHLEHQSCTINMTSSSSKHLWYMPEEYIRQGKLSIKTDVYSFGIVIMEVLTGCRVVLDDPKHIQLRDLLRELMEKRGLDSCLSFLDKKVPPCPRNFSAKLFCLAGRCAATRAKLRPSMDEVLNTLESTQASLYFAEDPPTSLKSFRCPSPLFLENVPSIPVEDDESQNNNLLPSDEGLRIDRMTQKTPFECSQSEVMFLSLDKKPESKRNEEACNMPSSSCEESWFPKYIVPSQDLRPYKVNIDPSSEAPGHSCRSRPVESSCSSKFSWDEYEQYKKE
SRPK1, sequence (Q96SB4 whole entry): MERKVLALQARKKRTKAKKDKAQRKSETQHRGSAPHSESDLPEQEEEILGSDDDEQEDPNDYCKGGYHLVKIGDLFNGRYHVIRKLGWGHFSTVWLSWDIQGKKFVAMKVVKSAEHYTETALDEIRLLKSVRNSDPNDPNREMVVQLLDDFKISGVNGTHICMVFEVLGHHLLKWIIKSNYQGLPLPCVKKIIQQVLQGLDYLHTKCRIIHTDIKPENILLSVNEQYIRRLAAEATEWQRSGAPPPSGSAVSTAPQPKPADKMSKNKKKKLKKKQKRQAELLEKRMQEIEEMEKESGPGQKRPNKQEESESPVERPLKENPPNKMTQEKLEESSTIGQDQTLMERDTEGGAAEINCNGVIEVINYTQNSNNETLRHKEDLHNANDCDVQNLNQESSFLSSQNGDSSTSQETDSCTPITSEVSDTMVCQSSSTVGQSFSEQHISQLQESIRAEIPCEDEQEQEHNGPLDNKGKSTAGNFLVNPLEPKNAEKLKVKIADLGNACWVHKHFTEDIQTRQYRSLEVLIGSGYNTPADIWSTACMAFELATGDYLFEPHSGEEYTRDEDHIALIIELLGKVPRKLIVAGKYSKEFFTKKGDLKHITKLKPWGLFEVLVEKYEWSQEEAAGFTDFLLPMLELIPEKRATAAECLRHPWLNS
T3 sequence (P11802 whole entry): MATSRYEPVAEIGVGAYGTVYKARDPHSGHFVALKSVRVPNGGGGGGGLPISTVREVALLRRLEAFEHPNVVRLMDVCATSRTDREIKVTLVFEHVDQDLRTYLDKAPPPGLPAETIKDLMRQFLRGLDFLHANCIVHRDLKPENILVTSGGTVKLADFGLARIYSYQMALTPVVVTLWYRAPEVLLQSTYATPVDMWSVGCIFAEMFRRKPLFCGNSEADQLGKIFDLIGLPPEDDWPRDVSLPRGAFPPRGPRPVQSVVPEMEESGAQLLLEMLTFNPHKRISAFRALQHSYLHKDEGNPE
T3 sequence (P24385 whole entry partner): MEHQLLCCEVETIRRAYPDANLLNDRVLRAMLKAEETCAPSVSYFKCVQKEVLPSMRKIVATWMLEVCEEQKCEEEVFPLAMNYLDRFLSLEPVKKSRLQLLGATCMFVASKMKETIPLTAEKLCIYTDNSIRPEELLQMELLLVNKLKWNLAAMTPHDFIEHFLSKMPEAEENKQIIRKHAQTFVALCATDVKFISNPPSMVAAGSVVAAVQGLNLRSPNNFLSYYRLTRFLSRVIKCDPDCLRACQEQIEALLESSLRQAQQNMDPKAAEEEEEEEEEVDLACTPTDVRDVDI
T5 sequence (P78356 whole entry): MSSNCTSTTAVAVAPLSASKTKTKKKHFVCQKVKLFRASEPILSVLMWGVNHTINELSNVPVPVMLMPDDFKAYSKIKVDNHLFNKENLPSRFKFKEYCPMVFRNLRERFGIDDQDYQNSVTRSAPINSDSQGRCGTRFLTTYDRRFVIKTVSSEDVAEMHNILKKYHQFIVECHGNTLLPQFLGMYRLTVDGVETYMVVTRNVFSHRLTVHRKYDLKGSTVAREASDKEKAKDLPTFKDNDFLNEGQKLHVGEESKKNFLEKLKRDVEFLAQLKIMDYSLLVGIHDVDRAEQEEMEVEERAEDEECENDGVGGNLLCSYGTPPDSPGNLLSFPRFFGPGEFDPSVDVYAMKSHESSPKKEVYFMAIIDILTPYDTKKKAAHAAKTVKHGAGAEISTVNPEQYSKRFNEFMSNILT
EGFR(L858R), sequence (P00533 whole entry L858R): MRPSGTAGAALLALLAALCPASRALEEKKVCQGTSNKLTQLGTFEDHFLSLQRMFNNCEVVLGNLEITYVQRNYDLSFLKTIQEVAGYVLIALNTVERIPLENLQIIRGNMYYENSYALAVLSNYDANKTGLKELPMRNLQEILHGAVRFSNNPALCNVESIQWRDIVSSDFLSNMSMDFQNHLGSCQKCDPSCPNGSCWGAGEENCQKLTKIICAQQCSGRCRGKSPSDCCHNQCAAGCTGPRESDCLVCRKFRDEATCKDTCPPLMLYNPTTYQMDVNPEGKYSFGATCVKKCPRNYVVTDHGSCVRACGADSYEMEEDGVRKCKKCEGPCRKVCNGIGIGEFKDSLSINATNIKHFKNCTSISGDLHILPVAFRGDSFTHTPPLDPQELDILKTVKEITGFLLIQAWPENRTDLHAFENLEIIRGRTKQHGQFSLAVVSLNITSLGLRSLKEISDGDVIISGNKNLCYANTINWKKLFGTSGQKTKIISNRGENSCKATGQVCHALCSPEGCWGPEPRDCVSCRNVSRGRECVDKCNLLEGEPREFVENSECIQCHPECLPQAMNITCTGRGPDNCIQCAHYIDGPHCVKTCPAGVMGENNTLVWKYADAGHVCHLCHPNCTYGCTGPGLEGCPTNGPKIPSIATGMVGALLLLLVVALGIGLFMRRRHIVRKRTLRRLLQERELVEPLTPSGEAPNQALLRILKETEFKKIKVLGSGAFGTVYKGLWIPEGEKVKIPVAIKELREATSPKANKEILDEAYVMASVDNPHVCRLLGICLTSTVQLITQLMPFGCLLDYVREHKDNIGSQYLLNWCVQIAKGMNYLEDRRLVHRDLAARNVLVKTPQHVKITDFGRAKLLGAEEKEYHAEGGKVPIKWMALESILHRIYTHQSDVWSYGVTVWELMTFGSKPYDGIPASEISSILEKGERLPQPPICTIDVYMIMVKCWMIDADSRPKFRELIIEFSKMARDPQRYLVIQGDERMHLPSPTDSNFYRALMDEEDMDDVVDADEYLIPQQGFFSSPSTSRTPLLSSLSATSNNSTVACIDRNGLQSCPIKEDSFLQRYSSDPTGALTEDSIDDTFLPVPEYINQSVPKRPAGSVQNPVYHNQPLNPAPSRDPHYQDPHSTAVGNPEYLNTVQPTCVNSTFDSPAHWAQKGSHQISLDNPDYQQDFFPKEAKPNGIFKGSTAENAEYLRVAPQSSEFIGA
PDGFRB, sequence (P09619 whole entry): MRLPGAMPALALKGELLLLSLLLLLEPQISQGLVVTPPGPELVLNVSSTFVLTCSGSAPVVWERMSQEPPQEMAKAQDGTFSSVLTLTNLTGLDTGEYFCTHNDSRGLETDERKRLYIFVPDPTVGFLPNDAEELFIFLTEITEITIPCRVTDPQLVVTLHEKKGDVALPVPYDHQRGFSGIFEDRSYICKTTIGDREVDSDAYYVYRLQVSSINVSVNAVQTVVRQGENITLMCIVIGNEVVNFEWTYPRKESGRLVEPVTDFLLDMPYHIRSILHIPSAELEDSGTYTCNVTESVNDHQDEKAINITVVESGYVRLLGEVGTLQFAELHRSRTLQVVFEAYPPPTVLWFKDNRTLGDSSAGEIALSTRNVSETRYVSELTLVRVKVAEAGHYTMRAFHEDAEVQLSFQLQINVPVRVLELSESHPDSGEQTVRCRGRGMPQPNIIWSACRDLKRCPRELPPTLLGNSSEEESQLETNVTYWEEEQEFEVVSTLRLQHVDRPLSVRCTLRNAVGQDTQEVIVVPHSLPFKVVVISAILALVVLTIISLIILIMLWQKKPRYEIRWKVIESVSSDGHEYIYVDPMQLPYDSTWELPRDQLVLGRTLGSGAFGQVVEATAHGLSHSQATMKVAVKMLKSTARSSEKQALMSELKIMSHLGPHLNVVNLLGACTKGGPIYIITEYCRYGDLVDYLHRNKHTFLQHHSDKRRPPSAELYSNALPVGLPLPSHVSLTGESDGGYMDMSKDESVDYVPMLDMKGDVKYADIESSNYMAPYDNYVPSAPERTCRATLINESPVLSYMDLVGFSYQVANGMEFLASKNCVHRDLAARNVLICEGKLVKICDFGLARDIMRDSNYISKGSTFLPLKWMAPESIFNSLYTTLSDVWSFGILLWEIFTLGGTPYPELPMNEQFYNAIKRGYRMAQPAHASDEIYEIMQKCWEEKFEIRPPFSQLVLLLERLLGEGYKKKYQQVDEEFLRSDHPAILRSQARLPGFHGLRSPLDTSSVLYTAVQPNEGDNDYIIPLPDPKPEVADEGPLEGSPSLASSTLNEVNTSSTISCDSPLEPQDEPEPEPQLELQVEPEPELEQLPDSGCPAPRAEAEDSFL
CSK, sequence (P41240 whole entry): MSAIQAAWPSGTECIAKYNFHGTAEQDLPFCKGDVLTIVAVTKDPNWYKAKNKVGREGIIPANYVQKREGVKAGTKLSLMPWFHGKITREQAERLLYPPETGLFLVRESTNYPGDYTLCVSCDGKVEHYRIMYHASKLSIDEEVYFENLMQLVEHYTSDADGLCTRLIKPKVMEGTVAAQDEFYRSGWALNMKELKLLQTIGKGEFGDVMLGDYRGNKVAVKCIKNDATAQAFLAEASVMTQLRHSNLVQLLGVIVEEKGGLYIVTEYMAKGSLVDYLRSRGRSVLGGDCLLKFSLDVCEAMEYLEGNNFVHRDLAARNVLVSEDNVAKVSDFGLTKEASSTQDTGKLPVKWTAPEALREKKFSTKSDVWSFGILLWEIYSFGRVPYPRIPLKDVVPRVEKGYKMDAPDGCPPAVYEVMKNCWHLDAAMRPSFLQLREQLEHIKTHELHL

Cc1ncccc1Oc1sc(C(N)=O)c2c1-c1c(cnn1C)CC2 [T-474, 1-methyl-8-((2-methylpyridin-3-yl)oxy)-4,5-dihydro-1H-thieno[3,4-g]indazole-6-carboxamide]
remaining binding at 0.3 µM [1]: 100% | remaining binding at 0.3 µM (ASK1): 81% | remaining binding at 0.3 µM (BUB1): 100% | remaining binding at 0.3 µM (CDK4-cyclinD1): 95% | remaining binding at 0.3 µM (CSK): 86% | remaining binding at 0.3 µM (EGFR(L858R)): 71% | remaining binding at 0.3 µM (EGFR(L861Q)): 91% | remaining binding at 0.3 µM (EPHA5): 98% | remaining binding at 0.3 µM (EPHB2): 83% | remaining binding at 0.3 µM (IKK-beta): 100% | remaining binding at 0.3 µM (IRAK3): 96% | remaining binding at 0.3 µM (MET(Y1235D)): 100% | remaining binding at 0.3 µM (PDGFRB): 100% | remaining binding at 0.3 µM (PIP5K2B): 100% | remaining binding at 0.3 µM (PKN1): 54% | remaining binding at 0.3 µM (PRKCH): 100% | remaining binding at 0.3 µM (PRKD3): 100% | remaining binding at 0.3 µM (PRKX): 100% | remaining binding at 0.3 µM (SRPK1): 100% | remaining binding at 0.3 µM (TNK1): 98% | remaining binding at 0.3 µM (WEE1): 90% | remaining binding at 0.3 µM (ZAK): 74%

O=C(/C=C/c1cnccc1-c1ccc(F)cc1)Nc1ccc(CCc2nnco2)cc1 [T-418, (2E)-3-(4-(4-fluorophenyl)pyridin-3-yl)-N-(4-(2-(1,3,4-oxadiazol-2-yl)ethyl)phenyl)acrylamide]
remaining binding at 0.3 µM ([1]; sheet T-418): 100% | remaining binding at 0.3 µM (ASK1; sheet T-418): 92% | remaining binding at 0.3 µM (BUB1; sheet T-418): 100% | remaining binding at 0.3 µM (CDK4-cyclinD1; sheet T-418): 91% | remaining binding at 0.3 µM (CSK; sheet T-418): 86% | remaining binding at 0.3 µM (EGFR(L858R); sheet T-418): 66% | remaining binding at 0.3 µM (EGFR(L861Q); sheet T-418): 86% | remaining binding at 0.3 µM (EPHA5; sheet T-418): 96% | remaining binding at 0.3 µM (EPHB2; sheet T-418): 100% | remaining binding at 0.3 µM (IKK-beta; sheet T-418): 100% | remaining binding at 0.3 µM (IRAK3; sheet T-418): 100% | remaining binding at 0.3 µM (MET(Y1235D); sheet T-418): 95% | remaining binding at 0.3 µM (PDGFRB; sheet T-418): 100% | remaining binding at 0.3 µM (PIP5K2B; sheet T-418): 94% | remaining binding at 0.3 µM (PKN1; sheet T-418): 48% | remaining binding at 0.3 µM (PRKCH; sheet T-418): 88% | remaining binding at 0.3 µM (PRKD3; sheet T-418): 100% | remaining binding at 0.3 µM (PRKX; sheet T-418): 100% | remaining binding at 0.3 µM (SRPK1; sheet T-418): 61% | remaining binding at 0.3 µM (TNK1; sheet T-418): 87% | remaining binding at 0.3 µM (WEE1; sheet T-418): 90% | remaining binding at 0.3 µM (ZAK; sheet T-418): 73%

From publication PMC5862592, “CDK8/19 inhibition induces premature G1/S transition and ATR-dependent cell death in prostate cancer cells” (Oncotarget, 2018)
